Two compounds from US11419856B2, “Pharmaceutical combinations for use in the treatment of neoplastic diseases” (Basilea Pharmaceutica International AG, priority 2017, dated 2022) can be followed below.

pIC50: −log10 of the molar value. Where two headings read alike, the source gives them in different places.

Data set [1] deals with MDA-MB-231 cells. As to the kind of experiment: Soft agar clonogenic (colony outgrowth) assay, anti-proliferative IC50. In kind it is cell-based. The conditions noted are these: Homo sapiens. As for the experimental part: Cells were plated in soft agar in 24-well plates according to the assay introduced by Hamburger & Salmon (Primary bioassay of human tumor stem cells, Science, 1977, 197:461-463). Each test well contained three layers of equal volume: 2 layers of semi-solid medium (bottom and top layer), and one layer of medium supernatant, with or without test compound (drug overlay on top of the semi-solid medium layer).
The bottom agar layer consisted of 0.2 mL/well IMDM supplemented with 20% (v/v) fetal calf serum, penicillin/streptomycin 50 μg/mL and 0.75% (w/v) bacto agar (BD Biosciences, #214050). For the top agar layer, 10′000-20′000 cells were added to 0.2 mL of the same IMDM medium supplemented with 0.35% (w/v) bacto agar and plated onto the bottom layer. For the drug overlay, the test compounds were applied by continuous exposure in 0.2 mL IMDM medium on top of the two agar layers. The drug overlay was added directly after seeding the cells as 3-fold concentrated solution and changed carefully every 3-4 days. Every 24-well plate contained untreated controls and samples in duplicates. Cultures were incubated at 37° C. and 5% CO2 for 6-14 days. 24 hours prior to evaluation, vital colonies were stained with a sterile aqueous solution of 2-(4-iodophenyl)-3-(4-nitrophenyl)-5-phenyltetrazolium chloride (Sigma, #I-8377, 1 mg/mL, 100 μL/well) (Alley M C et al., Life Sci. 1982, 31:3071-3078) and were counted with an automatic image analysis system (GelCount, Oxford Optronix). IC50-values were determined by plotting compound concentrations versus relative colony counts. Relative drug effects were expressed by the maximum effect of the mean number of colonies in the treated wells in comparison to the control wells.

Data set [2] can be described thus: Pharmacokinetic profile in mouse plasma (LC-MS/MS), single agents vs combination. In kind it is in vivo. The conditions noted are these: non-tumor bearing mice; BAL101553 daily, eribulin every two days to steady state; 10 minutes to 24 hours; FIG. 6. As to the method: Female NCI Ath/nu non-tumor bearing mice were treated either with BAL101553, eribulin or with a combination of BAL101553 and eribulin where eribulin was administered 30 minutes before BAL101553. Control animals received vehicle control. The mice were dosed until steady state was reached (BAL101553 was dosed daily and eribulin was dosed once every two days, the doses used for the combination-treatment matched those used in the monotherapy). Blood was taken from every animal according to a determined schedule covering a time window of 10 minutes to 24 hours, processed for plasma and subsequently analyzed by LC-MS/MS for the determination of BAL27862 (parent drug of BAL101553) and eribulin concentrations (ng/ml plasma). Data points represent mean values of ng/ml plasma concentration+/−SEM (n=3 animals).
The in vivo combination of BAL101553 with eribulin in the TNBC xenograft model MDA-MB-231 led to a higher proportion of cures or tumor free animals than observed in the single agent treatment groups. […] The mice were either treated with BAL101553, eribulin or the combination thereof, and plasma concentrations of BAL27862 and eribulin at various time points were determined (FIG. 6).

For data set [3], the system named is MiaPaCa2. Briefly: Soft agar assay, IC50 of single agents in MiaPaCa2. It counts as cell-based. Conditions: Homo sapiens, MIA PaCa-2. As to the method:
Example 5: Determination of Drug Interaction in Cell Lines by Soft Agar Assay
The combination of BAL101553 with eribulin was tested in various cell lines by soft agar assay. Table 1 and Table 2 present the results according to coefficient of drug interaction based on colony number (Table 1) and total area of colonies (Table 2). In both cases the coefficient of drug interaction is calculated according to the formula described in Zhao et al., J Intercult Ethnopharmacol. 2014, 3(2): 68-72): (combination/untreated)/[(compound1/untreated)×(compound2/untreated)]

Setting [4] is: read-out: IC50 values in soft agar assay.
Where [5] appears, read: soft agar clonogenic assay, data not shown, read-out: anti-proliferative IC50.

Take `N#CCCNc1nonc1-c1nc2ccccc2n1CC(=O)c1ccc(N)cc1` [BAL27862, 3-(4-{1-[2-(4-Amino-phenyl)-2-oxo-ethyl]-1H-benzoimidazol-2-yl}-furazan-3-ylamino)-propionitrile]: the pIC50 in data set [1] (setting [4]) is 7.92; in data set [1] (setting [5]) it was 7.92; in data set [3], 8.05. Moreover, the “plasma concentrations, single agent vs combination” value in data set [2] is on record as “did not change significantly”.
`C=C1C[C@@H]2CC[C@@]34C[C@H]5O[C@H]6[C@@H](O3)[C@H]3O[C@H](CC[C@@H]3O[C@H]6[C@H]5O4)CC(=O)C[C@@H]3[C@@H](OC)[C@@H](C[C@H](O)CN)O[C@H]3C[C@H]3O[C@@H](CC[C@@H]1O2)C[C@@H](C)C3=C.CS(=O)(=O)O` [Eribulin, (2R, 3R, 3aS, 7R, 8aS, 9S, 10aR, 11S, 12R, 13aR, 13bS, 15S, 18S, 21S, 24S, 26R, 28R, 29aS)-2-[(2S)-3-Amino-2-hydroxypropyl]-3-methoxy-26-methyl-20,27-dimethylidenehexacosahydro-11,15:18,21:24,28-triepoxy-7,9-ethano-12,15-methano-9H,15H-furo[3,2-i]furo[2′,3′:5,6]pyrano[4,3-b][1,4]dioxacyclopentacosin-5(4H)-one methanesulfonate (salt)]: the negative logarithm of the IC50 (pIC50) in data set [1] (setting [4]) is 9.95; in data set [1] (setting [5]) it was 10.00; in data set [3] it was 9.30. Further, in data set [2], the “plasma concentrations, single agent vs combination” value is recorded as “did not change significantly”.

The pIC50 is −log10 of the IC50, conventionally taken in molar units.
